Measured values from patent US20230227405A1, “5-OXOPYRROLIDINE-3-CARBOXAMIDES AS NAV1.8 INHIBITORS” (MERCK SHARP & DOHME CORP., priority 2020, published 2023).

Target: T1, human Nav1.8 (Homo sapiens, UniProt Q9Y5Y9)
T1 construct: expressed in transfected cells
Assay: Qube® automated patch-clamp assay, Nav1.8
Assay type: cell-based
Conditions: human Nav1.8 stably expressed in HEK 293 cells; whole-cell voltage clamp, room temperature; read-out: IC50 values (nM) for Examples in the Nav1.8 Qube® Assay
Method: Compounds were tested on human Nav1.8 and Nav1.5 channels stably expressed in human embryo kidney (HEK) 293 cells. Sodium current measurements on Qube® were conducted as follows: automated 384-well patch-clamp assays on the Qube® platform (Sophion Biosciences) were used to measure the inhibition of sodium flow through human Nav1.8 and Nav1.5 channels. Whole-cell voltage-clamp recordings were performed in QChips® (Sophion Biosciences) at room temperature. Nav1.8 current measurements on Qube® were obtained as follows: Nav1.8 currents were elicited with a 10 second 1 Hertz (Hz) pulse train from a holding potential of −90 millivolts (mV), delivered to the cells once per minute in the control condition (DMSO only) and after compound addition. The 1 hertz pulse train stimulation consisted of ten test pulses to 10 millivolt (mV) for 20 milliseconds (ms), each of which was followed by a 980 millisecond repolarization to −67 millivolts. At the end of the 10 second pulse train stimulation, a 5 second hyperpolarization step to −100 millivolt (mV) was used to recover Nav1.8 from fast inactivation. The peak currents elicited by the 1st and 10th test pulses were used to determine IC50 values for resting inhibition and inactivated state inhibition. Nav1.5 current measurements on Qube® were obtained as follows: Nav1.5 currents were elicited with a 20 second 3 Hertz pulse train in the control condition (DMSO only) and after compound addition. The pulse train consisted of sixty 20 millisecond test pulses to 0 millivolt from a holding potential of −80 millivolt (mV). The average peak currents elicited by the last 3 test pulses were used to determine IC50 values for Nav1.5 inhibition.
The following buffers were used for the Qube® recordings: External buffer for Nav1.8 Qube® recording: 150 NaCl, 2 CaCl2, 5 KCl, 1 Mg Cl2, 10 HEPES, 12 Dextrose; External buffer for Qube® Nav1.5 recording: 120 N-Methyl-D-Glucamine, 40 NaCl, 1 KCl, 2.7 CaCl2, 5 HEPES, 0.5 MgCl2; and Internal buffer for Qube® recording: 120 CsF, 30 CsCl, 10 EGTA, 5 HEPES, 5 NaF, 2 MgCl2.
For all Qube® experiments offline analysis was used to determine percent inhibition as a function of drug concentration. IC50 values were determined by fitting to the Hill equation.

T1 sequence (Q9Y5Y9 whole entry): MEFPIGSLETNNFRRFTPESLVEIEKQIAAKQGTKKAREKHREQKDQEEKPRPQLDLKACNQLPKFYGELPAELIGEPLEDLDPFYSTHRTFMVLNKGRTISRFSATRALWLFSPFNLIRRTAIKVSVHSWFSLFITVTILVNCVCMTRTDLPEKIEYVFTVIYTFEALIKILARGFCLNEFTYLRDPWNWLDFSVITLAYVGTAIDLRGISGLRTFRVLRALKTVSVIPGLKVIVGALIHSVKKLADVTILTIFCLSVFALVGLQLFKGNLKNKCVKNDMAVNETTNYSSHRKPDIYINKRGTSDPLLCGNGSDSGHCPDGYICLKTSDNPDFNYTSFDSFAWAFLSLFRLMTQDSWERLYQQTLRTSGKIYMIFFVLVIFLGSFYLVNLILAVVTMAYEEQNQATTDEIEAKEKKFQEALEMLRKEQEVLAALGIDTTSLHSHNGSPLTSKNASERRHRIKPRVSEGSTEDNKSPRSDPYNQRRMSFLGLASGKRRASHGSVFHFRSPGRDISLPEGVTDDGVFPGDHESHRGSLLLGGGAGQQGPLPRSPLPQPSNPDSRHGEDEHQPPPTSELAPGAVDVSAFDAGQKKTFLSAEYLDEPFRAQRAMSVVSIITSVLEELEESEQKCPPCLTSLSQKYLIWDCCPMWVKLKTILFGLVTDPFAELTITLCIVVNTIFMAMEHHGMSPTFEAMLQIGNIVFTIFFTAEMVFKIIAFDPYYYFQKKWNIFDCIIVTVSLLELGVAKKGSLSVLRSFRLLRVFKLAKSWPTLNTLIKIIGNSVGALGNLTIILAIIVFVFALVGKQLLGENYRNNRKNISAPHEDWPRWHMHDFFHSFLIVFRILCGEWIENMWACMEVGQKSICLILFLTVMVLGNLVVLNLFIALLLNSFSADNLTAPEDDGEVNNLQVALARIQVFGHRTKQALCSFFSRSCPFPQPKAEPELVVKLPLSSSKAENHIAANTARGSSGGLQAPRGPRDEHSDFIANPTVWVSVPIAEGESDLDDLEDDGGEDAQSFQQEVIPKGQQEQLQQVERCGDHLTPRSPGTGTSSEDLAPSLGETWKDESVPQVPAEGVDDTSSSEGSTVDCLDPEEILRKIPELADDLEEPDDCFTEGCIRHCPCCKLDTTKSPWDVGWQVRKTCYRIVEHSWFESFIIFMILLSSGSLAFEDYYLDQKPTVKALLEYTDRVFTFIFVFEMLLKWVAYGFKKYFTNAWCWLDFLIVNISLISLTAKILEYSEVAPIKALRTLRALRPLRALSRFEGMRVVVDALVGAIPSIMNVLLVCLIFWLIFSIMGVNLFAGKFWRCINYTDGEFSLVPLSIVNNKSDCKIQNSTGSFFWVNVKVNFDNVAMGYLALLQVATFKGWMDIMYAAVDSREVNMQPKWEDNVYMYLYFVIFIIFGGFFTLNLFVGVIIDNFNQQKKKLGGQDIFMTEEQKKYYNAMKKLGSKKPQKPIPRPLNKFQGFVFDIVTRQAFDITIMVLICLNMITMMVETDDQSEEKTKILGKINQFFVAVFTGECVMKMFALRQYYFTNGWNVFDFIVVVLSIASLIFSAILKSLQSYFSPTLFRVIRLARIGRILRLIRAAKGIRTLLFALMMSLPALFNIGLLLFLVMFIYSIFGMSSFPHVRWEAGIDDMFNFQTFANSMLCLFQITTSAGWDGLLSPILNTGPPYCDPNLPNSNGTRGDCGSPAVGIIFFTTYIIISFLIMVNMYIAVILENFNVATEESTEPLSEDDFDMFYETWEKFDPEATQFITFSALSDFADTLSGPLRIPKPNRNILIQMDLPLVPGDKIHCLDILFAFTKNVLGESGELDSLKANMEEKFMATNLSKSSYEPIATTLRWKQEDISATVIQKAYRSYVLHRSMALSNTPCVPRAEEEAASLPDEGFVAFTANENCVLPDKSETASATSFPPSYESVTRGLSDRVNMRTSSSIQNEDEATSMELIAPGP

Structure (SMILES)	IC50 [nM]
O=C1C[C@H](C(=O)NC(c2ccc(Cl)cc2)c2ccc(OC(F)(F)F)cc2)CN1 (single isomer, unassigned) [Example 12A, (S)-N-((R or S)-(4-chlorophenyl)(4-(trifluoromethoxy)phenyl)methyl)-5-oxopyrrolidine-3-carboxamide]	28
N#Cc1ccc(C(NC(=O)[C@@H]2CNC(=O)C2)c2ccc(F)c(Cl)c2)cc1 (single isomer, unassigned) [Example 13A, (S)-N-((R or S)-(3-chloro-4-fluorophenyl)(4-cyanophenyl)methyl)-5-oxopyrrolidine-3-carboxamide]	139
CC1C(=O)NCC1C(=O)NC(c1ccc(Cl)cc1)c1ccc(Cl)cc1 (single isomer, unassigned) [Example 27D, (3(R or S),4(R or S)—N-(bis(4-chlorophenyl)methyl)-4-methyl-5-oxopyrrolidine-3-carboxamide]	7650
O=C1C[C@H](C(=O)NC(c2ccc(F)c(C(F)(F)F)c2)c2csc(C(F)(F)F)n2)CN1 (stereo partly drawn) [Example 23, (3S)-N-((4-fluoro-3-(trifluoromethyl)phenyl)(2-(trifluoromethyl)thiazol-4-yl)methyl)-5-oxopyrrolidine-3-carboxamide]	92
CC1C(=O)NCC1C(=O)NC(c1ccc(Cl)cc1)c1ccc(Cl)cc1 (single isomer, unassigned) [Example 27B, (3(R or S),4(R or S)—N-(bis(4-chlorophenyl)methyl)-4-methyl-5-oxopyrrolidine-3-carboxamide]	277
O=C1C[C@H](C(=O)NC(c2ccc(Cl)cc2)c2ccc(OC(F)(F)F)cc2)CN1 (single isomer, unassigned) [Example 12B, (S)-N-((R or S)-(4-chlorophenyl)(4-(trifluoromethoxy)phenyl)methyl)-5-oxopyrrolidine-3-carboxamide]	4.1
O=C1C[C@H](C(=O)NC(c2ccc(Cl)cc2)c2cccc(OC(F)(F)F)c2)CN1 (stereo partly drawn) [Example 10, (3S)-N-((4-chlorophenyl)(3-(trifluoromethoxy)phenyl)methyl)-5-oxopyrrolidine-3-carboxamide]	52
O=C1C[C@H](C(=O)NC(c2ccc(F)c(Cl)c2)c2ccc(Cl)c(C(F)(F)F)n2)CN1 (single isomer, unassigned) [Example 20B, (S)-N-((R or S)-(3-chloro-4-fluorophenyl)(5-chloro-6-(trifluoromethyl)-pyridin-2-yl)methyl)-5-oxopyrrolidine-3-carboxamide]	2.9
CC1C(=O)NCC1C(=O)NC(c1ccc(Cl)cc1)c1ccc(Cl)cc1 (single isomer, unassigned) [Example 27A, (3(R or S),4(R or S)—N-(bis(4-chlorophenyl)methyl)-4-methyl-5-oxopyrrolidine-3-carboxamide]	7460
